Laboratory results as given in patent publication US9061060B2, “Deuterated benzylbenzene derivatives and methods of use” (Theracos Inc., priority 2008, dated 2015).

Legend:
[1] = target: T1, human SGLT2 (Homo sapiens, UniProt P31639); assay: Methyl-α-D-[U-14C]glucopyranoside uptake assay, cells stably expressing human SGLT2; format: cell-based; conditions: for IC50: HEK293.ETN cells expressing human SGLT2, 25% human serum, 1.5 hours; for Selectivity: SGLT1 IC50 divided by SGLT2 IC50
T1 construct: A full-length cDNA clone expressing human SGLT2 (GenScript Corporation)
T1 sequence (P31639 1-672): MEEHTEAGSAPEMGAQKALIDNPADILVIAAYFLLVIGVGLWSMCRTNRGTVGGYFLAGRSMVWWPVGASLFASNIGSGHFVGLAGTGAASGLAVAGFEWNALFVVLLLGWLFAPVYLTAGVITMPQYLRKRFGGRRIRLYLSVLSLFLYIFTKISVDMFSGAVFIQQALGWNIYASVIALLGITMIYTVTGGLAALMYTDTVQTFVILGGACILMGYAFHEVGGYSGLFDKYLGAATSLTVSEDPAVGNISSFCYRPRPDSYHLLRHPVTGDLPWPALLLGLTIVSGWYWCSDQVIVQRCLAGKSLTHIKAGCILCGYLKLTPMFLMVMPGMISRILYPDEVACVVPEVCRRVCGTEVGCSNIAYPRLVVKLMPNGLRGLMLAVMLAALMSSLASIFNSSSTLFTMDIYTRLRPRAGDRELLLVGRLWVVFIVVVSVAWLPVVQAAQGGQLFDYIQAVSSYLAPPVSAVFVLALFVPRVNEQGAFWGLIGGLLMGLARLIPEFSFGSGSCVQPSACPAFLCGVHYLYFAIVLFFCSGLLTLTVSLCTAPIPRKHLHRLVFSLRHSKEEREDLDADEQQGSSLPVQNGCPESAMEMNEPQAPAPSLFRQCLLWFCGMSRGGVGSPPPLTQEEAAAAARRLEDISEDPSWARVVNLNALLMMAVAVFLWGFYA
Text: A full-length cDNA clone expressing human SGLT2 (GenScript Corporation) was subcloned into Hind III and Not I sites of the pEAK15 expression vector. Clones harboring the cDNA inserts were identified by restriction analysis.
A plasmid containing human SGLT2 was linearized with Nsi I and purified by agarose gel electrophoresis. Using Lipofectamine 2000 Transfection Reagent (Invitrogen Corporation), DNA was transfected into HEK293.ETN cells and cultured in Dulbecco's Modified Eagle Medium (DMEM) containing 10% fetal bovine serum (FBS) at 37° C. under 5% CO2 for 24 hours. Transfectants were selected in the same growth medium supplemented with puromycin (Invitrogen Corporation) for two weeks. Puromycin-resistant cells were recovered and seeded on a fresh 96-well plate (single cell per well) and cultured in the presence of puromycin until cells became confluent.
Cells expressing SGLT1 or SGLT2 were seeded on 96-well ScintiPlate scintillating plates (PerkinElmer, Inc.) in DMEM containing 10% FBS (1×10^5 cells per well in […] medium) incubated at 37° C. under 5% CO2 for 48 hours prior to the assay.

[2] = target: T2, CYP3A4 (Homo sapiens, UniProt P08684); assay: P450-Glo CYP screening kit, CYP3A4 inhibition; format: in vitro ADME; conditions: luminescence, read-out: IC50 3A4
T2 construct: purchased Promega
Text: P450-Glo™ CYP Screening Kits for CYP1A2, CYP3A4 and CYP2C19 were purchased from Promega. […] Luminescence was quantified using a Victor 3 spectrophotometer (PerkinElmer).

[3] = Pharmacokinetic parameters in SD rats; format: in vivo, Sprague-Dawley rats; conditions: single oral 3 mg/kg in 30% PEG400, plasma
Description: The pharmacokinetic study of each test compound was conducted in 4 Sprague-Dawley rats following a single oral administration of 3 mg/kg of the compound. The dose was prepared by dissolving test article in appropriate volume of 30% PEG400. The plasma samples were collected from the orbital plexus at 0.083, 0.25, 0.50, 1.0, 2.0, 4.0, 6.0, 8.0, 12 and 24 hours post dose, and the plasma concentrations were determined by a developed LC-MS/MS method.

T2 sequence (P08684 whole entry): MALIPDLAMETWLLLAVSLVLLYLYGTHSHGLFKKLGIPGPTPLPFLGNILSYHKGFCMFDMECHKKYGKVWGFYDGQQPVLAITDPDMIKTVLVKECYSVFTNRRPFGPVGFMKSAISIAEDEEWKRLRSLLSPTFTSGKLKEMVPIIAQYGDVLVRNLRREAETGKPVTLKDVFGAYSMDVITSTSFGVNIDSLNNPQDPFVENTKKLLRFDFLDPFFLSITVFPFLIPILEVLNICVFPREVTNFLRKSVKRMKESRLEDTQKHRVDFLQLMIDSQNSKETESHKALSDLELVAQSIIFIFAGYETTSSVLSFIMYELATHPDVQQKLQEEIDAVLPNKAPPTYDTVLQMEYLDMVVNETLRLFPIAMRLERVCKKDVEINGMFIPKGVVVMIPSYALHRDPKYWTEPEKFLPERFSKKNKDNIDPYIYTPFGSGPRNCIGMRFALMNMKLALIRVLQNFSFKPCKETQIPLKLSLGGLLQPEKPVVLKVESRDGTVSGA

IC50 [1] [µM]	Selectivity [1]	IC50 [2] [µM]	CL/F ([3]; Sprague-Dawley, rat) [mL/min/kg]	AUC(0-t) ([3]; Sprague-Dawley, rat, read-out: AUC0-t (mean ± SD)) [ng·h/mL]	Cmax (mean ± SD) [3] [ng/mL]	t1/2 (mean ± SD) [3] [h]	tmax (mean ± SD) [3] [h]	SMILES
0.0019	284	250	9.47	5240 ± 715	1638 ± 326	3.55 ± 1.80	0.56 ± 0.31	COc1ccc(Cc2cc([C@@H]3O[C@H](CO)[C@@H](O)[C@H](O)[C@H]3O)ccc2Cl)cc1 [Ref B, (2S,3R,4R,5S,6R)-2-(4-chloro-3-(4-methoxybenzyl)phenyl)-6-(hydroxymethyl)tetrahydro-2H-pyran-3,4,5-triol, reference compound]
0.0008	1025	> 1000						[2H]C([2H])([2H])Oc1ccc(C([2H])([2H])c2cc([C@@H]3O[C@H](CO)[C@@H](O)[C@H](O)[C@H]3O)ccc2Cl)cc1 [compound 19, (2S,3R,4R,5S,6R)-2-(4-chloro-3-((4-(methoxy-d3)phenyl)methyl-d2)phenyl)-6-(hydroxymethyl)tetrahydro-2H-pyran-3,4,5-triol]
